The values below come from US8993632B2, “Inhibitors of the 11-beta-hydroxysteroid dehydrogenase type 1 enzyme” (AbbVie Inc., priority 2005, dated 2015).

A short description of data set [1]: Metabolic stability screen, human liver microsomes. It is filed as in vitro ADME. The conditions noted are these: 10 μM substrate, 30 min incubation, 37° C., 1 mM NADPH. Here is the method:
(§1) Metabolic stability screen: each substrate (10 μM) was incubated with microsomal protein (0.1-0.5 mg/ml) in 50 mM potassium phosphate buffer (pH 7.4) in 48-Well plate. The enzyme reaction was initiated by the addition of 1 mM NADPH, then incubated at 37° C. in a Form a Scientific incubator (Marietta, Ohio, USA) with gentle shaking. The reactions were quenched by the addition of 800 μl of ACN/MeOH (1:1, v/v), containing 0.5 μM of internal standard (IS), after 30 min incubation. Samples were then filtered by using Captiva 96-Well Filtration (Varian, Lake Forest, Calif., USA) and analyzed by LC/MS (mass spectrometry). Liver microsomal incubations were conducted in duplicate.
(§2) The parent remaining in the incubation mixture was determined by LC/MS. The LC/MS system consisted of an Agilent 1100 series (Agilent Technologies, Waldbronn, Germany) and API 2000 (MDS SCIEX, Ontario, Canada). A Luna C8(2) (50×2.0 mm, particle size 3 μm, Phenomenex, Torrance, Calif., USA) was used to quantify each compound at ambient temperature. The mobile phase consisted of (A): 10 mM NH4AC (pH 3.3) and (B): 100% ACN and was delivered at a flow rate of 0.2 ml/min. Elution was achieved using a linear gradient of 0-100% B over 3 min, then held 100% B for 4 min and returned to 100% A in 1 min. The column was equilibrated for 7 min before the next injection.
(§3) The peak area ratios (each substrate over IS) at each incubation time were expressed as the percentage of the ratios (each substrate over IS) of the control samples (0 min incubation). The parent remaining in the incubation mixture was expressed as the percentage of the values at 0 min incubation. The percentage turnover is calculated using the following equation (% turnover=100% turnover−% parent remaining) and is recorded as the percentage turnover in the Table 2.

The target in data set [2] is T1, truncated human 11β-HSD-1 enzyme (24-287AA) (Homo sapiens, UniProt P28845).
T1 construct: truncated human 11β-HSD-1 enzyme (24-287AA); made in house; host or cells: E. coli (crude lysate)
T1 sequence (P28845 24-287): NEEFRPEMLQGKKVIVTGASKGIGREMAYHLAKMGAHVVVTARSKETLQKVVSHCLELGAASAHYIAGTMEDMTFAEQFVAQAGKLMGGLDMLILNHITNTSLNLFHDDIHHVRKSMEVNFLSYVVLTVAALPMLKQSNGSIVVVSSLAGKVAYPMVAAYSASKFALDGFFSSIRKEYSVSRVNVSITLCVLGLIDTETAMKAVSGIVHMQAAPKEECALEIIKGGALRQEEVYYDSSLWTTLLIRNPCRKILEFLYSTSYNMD
The data set can be described thus: 11β-HSD-1 enzymatic Scintillation Proximity Assay (SPA). It is filed as biochemical. How it is done: (§4) The reaction was stopped by adding a non-specific 11β-HSD inhibitor, 18β-glycyrrhetinic acid. The tritiated cortisol was captured by a mixture of an anti-cortisol monoclonal antibody and SPA beads coated with anti-mouse antibodies. The reaction plate was shaken at room temperature and the radioactivity bound to SPA beads was then measured on a β-scintillation counter. The 11-βHSD-1 assay was carried out in 96-well microtiter plates in a total volume of 220 μl. […] In order to drive the reaction in the forward direction, 1 mM G-6-P was also added. Solid compound was dissolved in DMSO to make a 10 mM stock followed by a subsequent 10-fold dilution with 3% DMSO in Tris/EDTA buffer (pH 7.4). […] Reactions were initiated by the addition of 10 μl of 0.1 mg/ml E. coli lysates overexpressing 11β-HSD-1 enzyme. After shaking and incubating plates for 30 minutes at room temperature, reactions were stopped by adding 10 μl of 1 mM glycyrrhetinic acid. The product, tritiated cortisol, was captured by adding 10 μl of […] monoclonal anti-cortisol antibodies and 100 μl SPA beads coated with anti-mouse antibodies. After shaking for 30 minutes, plates were read on a liquid scintillation counter Topcount. Percent inhibition was calculated based on the background and the maximal signal. Wells that contained substrate without compound or enzyme were used as the background, while the wells that contained substrate and enzyme without any compound were considered as maximal signal. Percent of inhibition of each compound was calculated relative to the maximal signal and IC50 curves were generated. This assay was applied to 11β-HSD-2 as well, whereby tritiated cortisol and NAD^+ were used as substrate and cofactor, respectively.

Another data set has as its target T2, human 11-β-HSD-2 (Homo sapiens, UniProt P80365).
T2 sequence (P80365 1-405): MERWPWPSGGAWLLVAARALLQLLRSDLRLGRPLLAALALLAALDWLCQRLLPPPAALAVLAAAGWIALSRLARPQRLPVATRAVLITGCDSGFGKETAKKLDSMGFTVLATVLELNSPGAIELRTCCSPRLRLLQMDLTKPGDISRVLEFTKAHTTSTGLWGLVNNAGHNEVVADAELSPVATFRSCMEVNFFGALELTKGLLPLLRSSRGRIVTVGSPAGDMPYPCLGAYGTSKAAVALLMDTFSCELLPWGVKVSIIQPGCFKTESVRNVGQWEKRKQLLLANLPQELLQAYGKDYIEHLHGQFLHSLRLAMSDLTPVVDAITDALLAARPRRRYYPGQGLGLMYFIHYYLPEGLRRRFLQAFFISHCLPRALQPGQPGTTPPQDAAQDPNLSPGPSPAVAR
In words: 11β-HSD-2 Scintillation Proximity Assay (tritiated cortisol, NAD+). It is filed as biochemical. The settings on record: human enzyme, SPA. Here is the method: as §4

Data set [3] is described as follows: Metabolic stability screen, mouse liver microsomes. It is filed as in vitro ADME. The conditions noted are these: 10 μM substrate, 30 min incubation, 37° C., 1 mM NADPH. How it is done: as §1, §2, §3
The test system of another data set is CD-1 mice. In words: 24-hour inhibitory avoidance in mice after subchronic (3 administration) dosing. It is filed as in vivo. The settings on record: 30 mg/kg PO, BID the day before and one hour before training, vs vehicle control mice. Here is the method:
Male CD-1 mice were obtained from Charles River, Wilmington, Mass. Mice were group-housed 10 per cage. The body weight upon arrival was 20-25 g. Food and water were available ad libitum except during experiments. Animals were acclimated to the animal facilities for a period of at least one week prior to commencement of experiments. Animals were tested in the light phase of a 12-hour light: 12-hour dark schedule (lights on 0600 hours).
Compound KK and Compound LL were synthesized at Abbott Laboratories. […] Compound KK was administered in a cloudy, fine suspension, while Compound LL was administered in a solution.
On training day, mice were injected with Compound KK, Compound LL or vehicle one-hour PO before training. One hour following injection (start of training) mice were subjected to a training session in which they were placed in a lighted compartment of a two-compartment chamber (Gemini apparatus, San Diego Instruments, San Diego, Calif.) with a manually operated gate separating the compartments. […] Twenty-four hours later mice were again tested in the same apparatus, except without shock, and the transfer latency from the lighted to the dark compartment recorded and used as an index of memory for the punished response 24 hours earlier. […] Data were analyzed using Mann Whitney U comparisons. […]

On to `CC(C)(C(=O)NC1C2CC3CC(C2)CC1C3)c1ccccc1` (stereo not drawn) [E, N-2-adamantyl-2-methyl-2-phenylpropanamide], for which the “Human Liver Microsomal Turnover (%)” value in data set [1] is listed as 83%.
`O=C(O)C12CC3CC(C1)C(NC(=O)C1(c4ccc(Cl)cc4)CCC1)C(C3)C2` (stereo not drawn) [Compound A, E-4-{[1-(4-Chloro-phenyl)-cyclobutanecarbonyl]-amino}-adamantane-1-carboxylic acid]: the IC50 in data set [2] was 43 nM; at human 11-β-HSD-2, greater than 10000 nM. Also, in data set [1], the “Human Liver Microsomal Turnover (%)” value is 5%. Besides, in data set [3], the “Mouse Liver Microsomal Turnover (%)” value is recorded as 5%.
Regarding `O=C(O)C12CC3CC(C1)C(NC(=O)C1(c4ccccc4)CC1)C(C3)C2` (stereo not drawn) [B, E-4-[(1-Phenyl-cyclopropanecarbonyl)-amino]-adamantane-1-carboxylic acid], the IC50 in data set [2] worked out at 102 nM. Further, the “Human Liver Microsomal Turnover (%)” value in data set [1] worked out at 2%. In addition, the “Mouse Liver Microsomal Turnover (%)” value in data set [3] is recorded as 0%.
On to `CC1(C(=O)N[C@@H]2[C@@H]3C[C@@H]4C[C@H]2C[C@@](C(N)=O)(C4)C3)CCN(Cc2ccccc2)C1=O` (stereo partly drawn) [BB], for which the “memory retention (transfer latency), FIG. 3” value with CD-1 mice is on record as “significant improvement in memory retention”.
Consider `CC(C)(C(=O)N[C@@H]1[C@@H]2C[C@@H]3C[C@H]1C[C@@](C(=O)O)(C3)C2)c1ccccc1` [C, E-4-(2-Methyl-2-phenyl-propionylamino)-adamantane-1-carboxylic acid], for which the IC50 in data set [2] was 82 nM; against human 11-β-HSD-2, greater than 10000 nM. Moreover, the “Human Liver Microsomal Turnover (%)” value in data set [1] is 0%. In addition, the “Mouse Liver Microsomal Turnover (%)” value in data set [3] is 0%.
As for `NC(=O)C12CC3CC(C1)C(NC(=O)C1(c4ccc(Cl)cc4)CCC1)C(C3)C2` (stereo not drawn) [D, E-4-{[1-(4-Chloro-phenyl)-cyclobutanecarbonyl]-amino}-adamantane-1-carboxylic acid amide], in data set [1], the “Human Liver Microsomal Turnover (%)” value is recorded as 10%.
As to `NC(=O)[C@]12C[C@@H]3C[C@H](C1)[C@@H](NC(=O)C1(c4ccc(F)cc4)CCCC1)[C@@H](C3)C2` [N, E-4-({[1-(4-fluorophenyl)cyclopentyl]carbonyl}amino)adamantane-1-carboxamide], the results for the IC50 (in data set [2]; against human 11-β-HSD-2) were 31 nM and greater than 30000 nM, respectively.
For the compound `NC(=O)[C@]12C[C@@H]3C[C@H](C1)[C@@H](NC(=O)C1(c4ccccc4)CCCC1)[C@@H](C3)C2` [Compound K, E-4-{[(1-phenylcyclopentyl)carbonyl]amino}adamantane-1-carboxamide], the IC50 came to 43 nM in data set [2] and 16000 nM against human 11-β-HSD-2.
`Cc1ccccc1CN1CCCC(C)(C(=O)NC2C3CC4CC2CC(C(N)=O)(C4)C3)C1=O` (stereo not drawn) [Compound AA]: the “memory retention (transfer latency), FIG. 3” value in the data set on CD-1 mice is given as “significant improvement in memory retention”.
For `CC1(C(=O)N[C@@H]2[C@@H]3C[C@@H]4C[C@H]2C[C@@](C(N)=O)(C4)C3)CCN(Cc2ccccc2Cl)C1=O` (stereo partly drawn) [DD], the IC50 in data set [2] amounted to 23 nM; against human 11-β-HSD-2, 6300 nM.
`CC(C)(C(=O)N[C@@H]1[C@@H]2C[C@@H]3C[C@H]1C[C@@](C(N)=O)(C3)C2)c1ccc(-c2ccncc2)cc1` [Compound T, E-4-{[2-methyl-2-(4-pyridin-4-ylphenyl)propanoyl]amino}adamantane-1-carboxamide]: the IC50 in data set [2] is 31 nM; against human 11-β-HSD-2, greater than 30000 nM.
Take `O=C(NC1C2CC3CC(C2)CC1C3)C1(c2ccccc2)CC1` (stereo not drawn) [F, N-2-adamantyl-1-phenylcyclopropanecarboxamide]: the “Human Liver Microsomal Turnover (%)” value in data set [1] is given as 62%.
